From patent US6545151B2, “Pentacyclic compound” (Daiichi Pharmaceutical Co., Ltd., priority 1995, dated 2003)
In brackets after ≈: the same amount, converted by molar mass.

Legend:
P388 = assay: MTT cell proliferation test, P388; assay type: cell-based; settings: P388 tumor cell line, cultured for 3 days, absorbance at 540 nm
Experimental: (§1) Cells of each of three tumor cell lines, P388, PC-6 and PC-12, were inoculated into a 96 well microplate in an inoculum size of 5.0×10^2 cells/150 μl/well (P388), 5.0×10^3 cells/150 μl/well (PC-6) or 1.0×10^3 cells/150 μl/well (PC-12), and 50 μl/well of each sample was added to the plate 2 hours thereafter in the case of P388 or 24 hours thereafter in the case of the other two. Thereafter, the cells were cultured for 3 days and then 5 mg/ml solution of MTT [3-(4,5-dimethylthiazol-2-yl)-2,5-diphenyl-2H-tetrazolium bromide] was dispensed in 20 μl/well portions into wells of the microplate. Four hours thereafter, the culture medium was removed, 150 μl of dimethyl sulfoxide was added to each well and then absorbance at 540 nm was measured. The antitumor effect is shown as GI50 value (ng/ml) of each drug which decreases cell proliferation in each drug-added group to 50% of that in the control group.

PC-6 = assay: MTT cell proliferation test, PC-6; assay type: cell-based; settings: PC-6 tumor cell line, cultured for 3 days, absorbance at 540 nm
Experimental: as §1

PC-12 = assay: MTT cell proliferation test, PC-12; assay type: cell-based; settings: PC-12 tumor cell line, cultured for 3 days, absorbance at 540 nm
Experimental: as §1

[1] = system: digestive organ cancers, especially large bowel cancers; settings: clinical tests; cited from earlier work

Row | Molecule | GI50 value (P388) [ng/mL] | GI50 value (PC-6) [ng/mL] | GI50 value (PC-12) [ng/mL] | efficacy on digestive organ cancers, especially large bowel cancers [1]
1 | 9β-13-O-[(2R,3R)-3-(tert-Butoxycarbonylamino)-3-(2-furyl)-2-hydroxypropionyl]-10-deacetyl-7-deoxy-9-dihydro-9,10-O-(2-morpholinoethylidene)baccatin III [Inventive Example 79] | 0.00689 | 0.0673 | 0.0264 | 
2 | 9β-13-O-[(2R,3S)-3-(tert-Butoxycarbonylamino)-2-hydroxy-3-(2-pyridyl)propionyl]-4-O-cyclopropanecarbonyl-4,10-dideacetyl-9-dihydro-9,10-O-isopropylidenebaccatin III [Inventive Example 69] | 0.0161 | 0.0915 | 0.0466 | 
3 | 9β-13-O-[(2R,3R)-3-(tert-Butoxycarbonylamino)-3-(2-furyl)-2-hydroxypropionyl]-4-O-cyclopropanecarbonyl-7-deoxy-4,10-dideacetyl-6,7-didehydro-9-dihydro-9,10-O-(2-morpholinoethylidene)baccatin III [Inventive Example 123] | 0.0158 | 0.366 | 0.167 | 
4 | 9β-13-O-[(2R,3R)-3-(tert-Butoxycarbonylamino)-2-hydroxy-3-(2-thienyl)propionyl]-10-deacetyl-7-deoxy-9-dihydro-9,10-O-(2-morpholinoethylidene)baccatin III [Inventive Example 98] | 0.0126 | 0.0696 | 0.022 | 
5 | 9β-13-O-[(2R,3R)-3-(tert-Butoxycarbonylamino)-3-(2-furyl)-2-hydroxypropionyl]-10-deacetyl-7-deoxy-9-dihydro-9,10-O-(2-dimethylaminoethylidene)baccatin III [Inventive Example 105] | 0.0475 | 0.190 | 0.0643 | 
6 | 9β-13-O-[3-(tert-Butoxycarbonylamino)-2-hydroxy-2-methyl-3-(4-pyridyl)propionyl]-4,10-dideacetyl-9-dihydro-4-O-ethoxycarbonyl-9,10-O-isopropylidenebaccatin III [Inventive Example 101] | 0.0301 | 0.409 | 0.125 | 
7 | 9β-4-O-Butanoyl-13-O-[(2R,3R)-3-(tert-butoxycarbonylamino)-3-(2-furyl)-2-hydroxypropionyl]-4,10-dideacetyl-9-dihydro-9,10-O-(2-morpholinoethylidene)baccatin III [Inventive Example 22] | 0.0193 | 0.187 | 0.181 | 
8 | 9β-13-O-[3-(tert-Butoxycarbonylamino)-2-hydroxy-2-methyl-3-(4-pyridyl)propionyl]-4-O-cyclopropanecarbonyl-4,10-dideacetyl-7-deoxy-9-dihydro-9,10-O-isopropylidenebaccatin III [Inventive Example 65] | 0.00509 | 0.278 | 0.0684 | 
9 | 9β-13-O-[(2R,3S)-3-(tert-Butoxycarbonylamino)-2-hydroxy-3-(4-pyridyl)propionyl]-4-O-cyclopropanecarbonyl-4,10-dideacetyl-7-deoxy-9-dihydro-9,10-O-isopropylidenebaccatin III [Inventive Example 70] | 0.00137 | 0.160 | 0.0184 | 
10 | 9β-13-O-[3-(tert-Butoxycarbonylamino)-2-hydroxy-2-methyl-3-(4-pyridyl)propionyl]-4,10-dideacetyl-9-dihydro-9,10-O-isopropylidene-4-O-propionylbaccatin III [Inventive Example 90] | 0.0519 | 0.209 | 0.0943 | 
11 | 9β-13-O-[3-(tert-Butoxycarbonylamino)-2-hydroxy-2-methyl-3-(4-pyridyl)propionyl]-4-O-cyclopropanecarbonyl-4,10-dideacetyl-9-dihydro-9,10-O-isopropylidenebaccatin III [Inventive Example 60] | 0.0129 | 0.395 | 0.0698 | 
12 | 9β-13-O-[(2R,3R)-3-(tert-Butoxycarbonylamino)-3-(2-furyl)-2-hydroxypropionyl]-4,10-dideacetyl-9-dihydro-9,10-O-(2-morpholinoethylidene)-4-O-propionylbaccatin III [Inventive Example 25] | 0.0549 | 1.31 | 0.234 | 
13 | 9β-13-O-[3-(tert-Butoxycarbonylamino)-3-(2-furyl)-2-hydroxy-2-methylpropionyl]-4-O-cyclopropanecarbonyl-4,10-dideacetyl-9-dihydro-9,10-O-(2-morpholinoethylidene)baccatin III [Inventive Example 57] | 0.0135 | 0.734 | 0.0739 | 
14 | 9β-13-O-[(2R,3S)-3-(tert-Butoxycarbonylamino)-2-hydroxy-3-phenylpropionyl]-4-O-cyclopropanecarbonyl-4,10-dideacetyl-9-dihydro-9,10-O-(2-morpholinoethylidene)baccatin III [Inventive Example 53] | 0.0128 | 0.874 | 0.0758 | 
15 | CC(=O)O[C@@]12CO[C@@H]1C[C@H](O)[C@@]1(C)C(=O)[C@H](O)C3=C(C)[C@@H](OC(=O)[C@H](O)[C@@H](NC(=O)OC(C)(C)C)c4ccccc4)C[C@@](O)([C@@H](OC(=O)c4ccccc4)[C@H]21)C3(C)C [Taxotere, reference compound] | 1.62 (≈ 2.01 nM) | 1.16 (≈ 1.44 nM) | 19.1 (≈ 23.6 nM) | low efficacy
16 | 7α,9β-4-O-Butanoyl-13-O-[(2R,3R)-3-(tert-butoxycarbonylamino)-3-(2-furyl)-2-hydroxypropionyl]-7-deoxy-4,10-dideacetyl-9-dihydro-7-fluoro-9,10-O-(2-morpholinoethylidene)baccatin III [Inventive Example 81] | 0.0048 | 0.0604 | 0.050 | 
17 | CC(=O)O[C@H]1C(=O)[C@@]2(C)[C@H]([C@H](OC(=O)c3ccccc3)[C@]3(O)C[C@H](OC(=O)[C@H](O)[C@@H](NC(=O)c4ccccc4)c4ccccc4)C(C)=C1C3(C)C)[C@]1(OC(C)=O)CO[C@@H]1C[C@@H]2O [Taxol, reference compound] | 4.36 (≈ 5.11 nM) | 1.20 (≈ 1.41 nM) | 82.2 (≈ 96.3 nM) | low efficacy
18 | 9β-13-O-[3-(tert-Butoxycarbonylamino)-2-hydroxy-2-methyl-3-(4-pyridyl)propionyl]-10-deacetyl-7-deoxy-9-dihydro-9,10-O-isopropylidenebaccatin III [Inventive Example 95] | 0.0034 | 0.0992 | 0.0121 | 
19 | 9β-13-O-[(2R,3R)-3-(tert-Butoxycarbonylamino)-3-(2-furyl)-2-hydroxypropionyl]-4-O-cyclopropanecarbonyl-4,10-dideacetyl-9-dihydro-9,10-O-(2-morpholinoethylidene)baccatin III [Inventive Example 51] | 0.00754 | 0.354 | 0.0669 | 
20 | 9β-13-O-[3-(tert-Butoxycarbonylamino)-2-hydroxy-2-methyl-3-(4-pyridyl)propionyl]-4-O-cyclopropanecarbonyl-7-deoxy-4,10-dideacetyl-6,7-didehydro-9-dihydro-9,10-O-isopropylidenebaccatin III [Inventive Example 121] | 0.00173 | 0.803 | 0.0498 | 
